Measured values as given in patent US8106055B2, “Substituted amide compounds” (Gruenenthal GmbH, priority 2007, dated 2012).

Assays:
[1] = molecular target: T1, human bradykinin 1 receptor (B1R) (Homo sapiens, UniProt P46663); experiment: Functional investigation on the human bradykinin 1 receptor (B1R), Ca2+ FLIPR assay in CHO K1 hB1R cells; type: cell-based; conditions: CHO-K1, B1R antagonism human; test substance 10 μM; Ca2+ FLIPR, CHO K1 hB1R cells; read-out: B1R Ant. h [10 μM] % Inhibition
T1 construct: expressed in transfected cells; host or cells: CHO K1 cells
T1 sequence (P46663 1-353): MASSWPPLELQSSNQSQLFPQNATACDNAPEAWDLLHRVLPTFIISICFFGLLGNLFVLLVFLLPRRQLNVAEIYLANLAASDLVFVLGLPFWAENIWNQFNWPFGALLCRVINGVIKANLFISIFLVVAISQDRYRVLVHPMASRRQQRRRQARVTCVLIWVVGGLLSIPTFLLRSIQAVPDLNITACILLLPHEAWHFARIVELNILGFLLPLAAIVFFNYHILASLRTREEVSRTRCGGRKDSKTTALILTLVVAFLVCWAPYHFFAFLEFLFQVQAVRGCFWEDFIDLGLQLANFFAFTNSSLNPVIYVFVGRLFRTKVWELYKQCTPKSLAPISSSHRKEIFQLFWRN
Procedure, shortened: (§1)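 Peak Ca2+-dependent fluorescence in B1R-transfected CHO K1 cells measures antagonism of an EC80 agonist challenge given 10-20 min after compound. Agonist is Lys-Des-Arg9-bradykinin for human, Des-Arg9-bradykinin for rat receptor.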

human μ opiate receptor = molecular target: T2, human μ opiate receptor (Homo sapiens, UniProt P35372); experiment: Affinity for the human μ opiate receptor ([3H]-naloxone displacement, CHO-K1 receptor membrane preparation, SPA); type: binding; conditions: 1.5 h, Table 3, to be read in the same way as Table 1; test concentration 1 μM; read-out: μ
T2 construct: purchased PerkinElmer Life Sciences, Zaventem, Belgium RB-HOM; host or cells: CHO-K1 cells (membrane preparation)
T2 sequence (P35372 whole entry): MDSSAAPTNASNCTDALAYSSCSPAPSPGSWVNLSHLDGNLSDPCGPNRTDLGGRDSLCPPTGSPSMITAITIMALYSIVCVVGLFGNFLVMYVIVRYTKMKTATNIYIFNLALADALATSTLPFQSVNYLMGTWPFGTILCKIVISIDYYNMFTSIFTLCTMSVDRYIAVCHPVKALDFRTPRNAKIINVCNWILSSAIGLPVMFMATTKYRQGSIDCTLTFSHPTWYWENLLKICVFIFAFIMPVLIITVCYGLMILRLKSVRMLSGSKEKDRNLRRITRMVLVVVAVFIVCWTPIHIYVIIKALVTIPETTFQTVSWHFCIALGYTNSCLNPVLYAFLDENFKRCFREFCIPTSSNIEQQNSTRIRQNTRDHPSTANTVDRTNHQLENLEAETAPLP
Procedure, shortened: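 At 1 μmol/l, compounds were scored for % displacement of 1 nmol/l [3H]-naloxone from CHO-K1-expressed human μ opiate receptor in a homogeneous SPA format (90 min, room temperature).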

[2] = molecular target: T3, bradykinin 1 receptor (B1R) of the rat (Rattus norvegicus, UniProt P97583); experiment: Functional investigation on the rat bradykinin 1 receptor (B1R), Ca2+ FLIPR assay in CHO K1 rB1R cells; type: cell-based; conditions: CHO-K1, B1R antagonism rat; test substance 10 μM; Ca2+ FLIPR, CHO K1 rB1R cells; read-out: B1R Ant. r [10 μM] % Inhibition
T3 construct: expressed in transfected cells; host or cells: CHO K1 cells
T3 sequence (P97583 1-337): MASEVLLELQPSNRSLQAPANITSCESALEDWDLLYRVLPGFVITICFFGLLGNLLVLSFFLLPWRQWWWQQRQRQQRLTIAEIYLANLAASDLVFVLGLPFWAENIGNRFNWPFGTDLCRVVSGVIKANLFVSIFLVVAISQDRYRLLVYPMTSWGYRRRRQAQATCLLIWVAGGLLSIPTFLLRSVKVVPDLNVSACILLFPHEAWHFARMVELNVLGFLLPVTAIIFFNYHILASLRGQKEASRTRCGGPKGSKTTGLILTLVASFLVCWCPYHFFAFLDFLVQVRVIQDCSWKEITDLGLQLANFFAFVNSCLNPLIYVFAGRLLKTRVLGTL
Procedure, shortened: as §1

SMILES	inhibition at 10 µM [1]	inhibition at 1 µM (human μ opiate receptor)	inhibition at 10 µM [2]
COc1cc(C)c(S(=O)(=O)N2CCCCC2COCC(=O)NC2CCC(C(c3ccccc3)N3CCCC3)CC2)c(C)c1 (stereo not drawn) [Example 652, 2-((1-(4-methoxy-2,6-dimethylphenylsulfonyl)piperidin-2-yl)methoxy)-N-(4-(phenyl(pyrrolidin-1-yl)methyl)cyclohexyl)acetamide]	101%	70%	105%
O=C(COCC1CCCCN1S(=O)(=O)c1c(Cl)cc(Cl)cc1Cl)NC1CCC(C(c2ccccc2)N2CCCC2)CC1 (stereo not drawn) [Example 653, N-(4-(phenyl(pyrrolidin-1-yl)methyl)cyclohexyl)-2-((1-(2,4,6-trichlorophenylsulfonyl)piperidin-2-yl)methoxy)acetamide]	101%	94%	95%
COc1cc(C)c(S(=O)(=O)N2CCCC(COCC(=O)NC3CCC(C(c4ccccc4)N4CCCC4)CC3)C2)c(C)c1 (stereo not drawn) [Example 654, 2-((1-(4-methoxy-2,6-dimethylphenylsulfonyl)piperidin-3-yl)methoxy)-N-(4-(phenyl(pyrrolidin-1-yl)methyl)cyclohexyl)acetamide]	80%	53%	46%
COc1cc(C)c(S(=O)(=O)N2CCCC(COCC(=O)NCC3CCC(C(c4ccccc4)N4CCCC4)CC3)C2)c(C)c1 (stereo not drawn) [Example 655, 2-((1-(4-methoxy-2,6-dimethylphenylsulfonyl)piperidin-3-yl)methoxy)-N-((4-(phenyl(pyrrolidin-1-yl)methyl)cyclohexyl)methyl)acetamide]	71%	38%	74%
O=C(COC1CCCN(S(=O)(=O)c2c(Cl)cc(Cl)cc2Cl)C1)NCC1CCC(C(c2ccccc2)N2CCCC2)CC1 (stereo not drawn) [Example 656, N-((4-(phenyl(pyrrolidin-1-yl)methyl)cyclohexyl)methyl)-2-(1-(2,4,6-trichlorophenylsulfonyl)piperidin-3-yloxy)acetamide]	76%	89%	42%
COc1cc(C)c(S(=O)(=O)N2CCCCC2COCC(=O)NCC2CCC(C(c3ccccc3)N3CCCC3)CC2)c(C)c1 (stereo not drawn) [Example 657, 2-((1-(4-methoxy-2,6-dimethylphenylsulfonyl)piperidin-2-yl)methoxy)-N-((4-(phenyl(pyrrolidin-1-yl)methyl)cyclohexyl)methyl)acetamide]	104%	84%	105%
O=C(COCC1CCCCN1S(=O)(=O)c1c(Cl)cc(Cl)cc1Cl)NCC1CCC(C(c2ccccc2)N2CCCC2)CC1 (stereo not drawn) [Example 658, N-((4-(phenyl(pyrrolidin-1-yl)methyl)cyclohexyl)methyl)-2-((1-(2,4,6-trichlorophenylsulfonyl)piperidin-2-yl)methoxy)acetamide]	104%	88%	105%
O=C(COCC1CCCN(S(=O)(=O)c2c(Cl)cc(Cl)cc2Cl)C1)NCC1CCC(C(c2ccccc2)N2CCCC2)CC1 (stereo not drawn) [Example 659, N-((4-(phenyl(pyrrolidin-1-yl)methyl)cyclohexyl)methyl)-2-((1-(2,4,6-trichlorophenylsulfonyl)piperidin-3-yl)methoxy)acetamide]	50%	79%	100%
CN(CCOCC(=O)NC1CCC(C(CCc2ccccc2)N2CCOCC2)CC1)S(=O)(=O)c1ccc(Cl)cc1Cl (stereo not drawn) [Example 660, 2-(2-(2,4-dichloro-N-methylphenylsulfonamido)ethoxy)-N-(4-(1-morpholino-3-phenylpropyl)cyclohexyl)acetamide]	30%	4%	12%
CN(CCOCC(=O)NC1CCC(C(CCc2ccccc2)N2CCCCC2)CC1)S(=O)(=O)c1ccc(Cl)cc1Cl (stereo not drawn) [Example 661, 2-(2-(2,4-dichloro-N-methylphenylsulfonamido)ethoxy)-N-(4-(3-phenyl-1-(piperidin-1-yl)propyl)cyclohexyl)acetamide]	73%	21%	25%
COc1cc(C)c(S(=O)(=O)N(C)CCOCC(=O)NC2CCC(C(CCc3ccccc3)N3CCOCC3)CC2)c(C)c1 (stereo not drawn) [Example 662, 2-(2-(4-methoxy-N,2,6-trimethylphenylsulfonamido)ethoxy)-N-(4-(1-morpholino-3-phenylpropyl)cyclohexyl)acetamide]	104%	3%	101%
COc1cc(C)c(S(=O)(=O)N(C)CCOCC(=O)NC2CCC(C(CCc3ccccc3)N3CCCCC3)CC2)c(C)c1 (stereo not drawn) [Example 663, 2-(2-(4-methoxy-N,2,6-trimethylphenylsulfonamido)ethoxy)-N-(4-(3-phenyl-1-(piperidin-1-yl)propyl)cyclohexyl)acetamide]	103%	26%	95%
CN(CCOCC(=O)NC1CCC(C(CCc2ccccc2)N2CCOCC2)CC1)S(=O)(=O)c1c(Cl)cccc1Cl (stereo not drawn) [Example 664, 2-(2-(2,6-dichloro-N-methylphenylsulfonamido)ethoxy)-N-(4-(1-morpholino-3-phenylpropyl)cyclohexyl)acetamide]	70%	5%	11%
CN(CCOCC(=O)NC1CCC(C(CCc2ccccc2)N2CCCCC2)CC1)S(=O)(=O)c1c(Cl)cccc1Cl (stereo not drawn) [Example 665, 2-(2-(2,6-dichloro-N-methylphenylsulfonamido)ethoxy)-N-(4-(3-phenyl-1-(piperidin-1-yl)propyl)cyclohexyl)acetamide]	94%	18%	28%
O=C(COC1CCN(S(=O)(=O)c2c(Cl)cc(Cl)cc2Cl)C1)NC1CCC(C(CCc2ccccc2)N2CCOCC2)CC1 (stereo not drawn) [Example 666, N-(4-(1-morpholino-3-phenylpropyl)cyclohexyl)-2-(1-(2,4,6-trichlorophenylsulfonyl)pyrrolidin-3-yloxy)acetamide]	11%	6%	5%
O=C(COC1CCN(S(=O)(=O)c2c(Cl)cc(Cl)cc2Cl)C1)NC1CCC(C(CCc2ccccc2)N2CCCCC2)CC1 (stereo not drawn) [Example 667, N-(4-(3-phenyl-1-(piperidin-1-yl)propyl)cyclohexyl)-2-(1-(2,4,6-trichlorophenylsulfonyl)pyrrolidin-3-yloxy)acetamide]	57%	32%	17%
COc1cc(C)c(S(=O)(=O)N2CCC(OCC(=O)NC3CCC(C(CCc4ccccc4)N4CCOCC4)CC3)C2)c(C)c1 (stereo not drawn) [Example 668, 2-(1-(4-methoxy-2,6-dimethylphenylsulfonyl)pyrrolidin-3-yloxy)-N-(4-(1-morpholino-3-phenylpropyl)cyclohexyl)acetamide]	88%	10%	64%
COc1cc(C)c(S(=O)(=O)N2CCC(OCC(=O)NC3CCC(C(CCc4ccccc4)N4CCCCC4)CC3)C2)c(C)c1 (stereo not drawn) [Example 669, 2-(1-(4-methoxy-2,6-dimethylphenylsulfonyl)pyrrolidin-3-yloxy)-N-(4-(3-phenyl-1-(piperidin-1-yl)propyl)cyclohexyl)acetamide]	103%	20%	95%
CN(CCOCC(=O)NC1CCC(C(CCc2ccccc2)N2CCOCC2)CC1)S(=O)(=O)c1c(Cl)cc(C(F)(F)F)cc1Cl (stereo not drawn) [Example 670, 2-(2-(2,6-dichloro-N-methyl-4-(trifluoromethyl)phenylsulfonamido)ethoxy)-N-(4-(1-morpholino-3-phenylpropyl)cyclohexyl)acetamide]	12%	7%	58%
CN(CCOCC(=O)NC1CCC(C(CCc2ccccc2)N2CCCCC2)CC1)S(=O)(=O)c1c(Cl)cc(C(F)(F)F)cc1Cl (stereo not drawn) [Example 671, 2-(2-(2,6-dichloro-N-methyl-4-(trifluoromethyl)phenylsulfonamido)ethoxy)-N-(4-(3-phenyl-1-(piperidin-1-yl)propyl)cyclohexyl)acetamide]	43%	9%	4%
